# In paper PMC7613515, “Reading and erasing of the phosphonium analogue of trimethyllysine by epigenetic proteins” (Communications Chemistry, 2022):
# How the values were obtained:
# [1] = molecular target: T1, KDM4ATTD (JMJD2A, Q897-P1011) (Homo sapiens, UniProt O75164); assay: ITC, association of histone H3 peptides with KDM4ATTD; format: binding
# T1 construct: KDM4ATTD (JMJD2A, Q897-P1011); made in house; host or cells: E. coli
# T1 sequence (O75164 897-1011): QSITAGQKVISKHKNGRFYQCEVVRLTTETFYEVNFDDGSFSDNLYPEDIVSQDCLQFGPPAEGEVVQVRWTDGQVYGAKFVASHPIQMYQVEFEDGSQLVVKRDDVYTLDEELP
# Source text: (§1) We investigated the thermodynamics of association of the H3KP4me3 peptide with five representative human reader domains containing either a PHD zinc finger or TTD, i.e. KDM5APHD3 (JARID1A-PHD3, residues M1489–V1641)[10], TAF3PHD (R857–K924)[22], BPTFPHD (L2583–N2751)[23], SGF29TTD (R115–K293)[24] and KDM4ATTD (JMJD2A, Q897-P1011)[25], selected on the basis of their preference for binding Ν^ε-trimethyllysine over other (non)methylation marks (Kme0 < Kme1 < Kme2 < Kme3), and their domain and aromatic cage diversity. The recombinant readers were produced in E. coli following reported procedures. Isothermal titration calorimetric (ITC) analyses were used to determine the dissociation constant (Kd), the Gibbs free energy of binding (ΔG°), the enthalpy of binding (ΔH°), and the entropy of binding (ΔS°). […] (Table 1, Fig. 2, Supplementary Fig. 1).
# The following purified reader domains: TAF3PHD (R857-K924), KDM5APHD3 (JARID1A, M1489-V1641), BPTFPHD (L2583-N2751), KDM4ATTD (JMJD2A, Q897-P1011) and SGF29TTD (R115-K293) were prepared as reported[10],[22]–[26]. The histone lysine demethylase were produced and purified to high purity via reported procedures KDM3A (JMJD1A, T515-S1317)[41], KDM4AJmjC[39] (JMJD2A, M1-L359), KDM4EJmjC (JMJD2E, M1–Q337)[34] and KDM7B[40] (PHF8, M37-N483 [NP_001171]). KDM5DJmjC was produced using an N-terminal hexa-His tagged KDM4D (KDM4DM1-L358) DNA construct, transformed into BL21(DE3) competent cells for recombinant protein production. Colonies were used to inoculate of LB media (50 mL) containing kanamycin (50 µg·mL^−1) and chloramphenicol (34 µg·mL^−1), which was placed in a 37 °C shaker overnight. The starter culture (10 mL) was used to inoculate TB media (6 × 1 L) containing kanamycin (50 µg·mL^−1) in 2 L baffled shaker flasks. After reaching an of OD600 of ~0.8, the temperature was reduced to 18 °C; at OD600 ~0.9 the cells were induced by the IPTG (0.5 mM) addition. After shaking overnight, the culture was centrifuged (5000 rpm, 10 mins), the media was decanted, and the cell pellet was suspended in Lysis Buffer [HEPES (50 mM), NaCl (500 mM), imidazole (20 mM), glycerol (5%) and TCEP (0.5 mM) in water (pH 7.4)]. The suspension was lysed by passaging through a high-pressure cell breaker (Avestin – EmulsiFlex-C5) for three rounds. The lysate was cleared by centrifugation (60 minutes, 36,000 × g, 4 °C), then loaded onto a Ni NTA gravity column. After extensive rinsing of the Ni-NTA gravity column with lysis buffer, the His-tagged protein was eluted in lysis buffer containing 300 mM imidazole. The eluted protein was concentrated and subjected to gel filtration chromatography using an AKTA Xpress system, an S200 16/600 gel filtration column, and GF buffer [HEPES (50 mM), NaCl (150 mM), glycerol (5%) and TCEP (0.5 mM) in water (pH 7.4)]. The protein identity was verified by LC-MS (ESI-TOF) observing a mass of 43759.7 Da, in accord with the predicted mass of 43751.6 Da.
# ITC studies followed a reported procedure. The buffer used corresponded to that used in the final protein purification step. Briefly, TAF3PHD and KDM4ATTD: [Tris (50 mM) in water (pH 7.5)]; KDM5APHD3 and BTPFPHD: [Tris (50 mM), NaCl (20 mM) in water (pH 7.5)]; [Tris (25 mM), NaCl (50 mM), 1,4-dithiothreitol (1.0 mM) in water (pH 7.5)]. Experiments were conducted using ITC200 automated (GE Healthcare Life Sciences, USA) instrument at 25 °C. Histone peptide titrations were performed with the same reader batches. Solutions of the reader in buffer (25–40 µM) and of the histone H3 peptide (350–600 µM) in buffer were prepared. The prepared solutions were plated into a 96-well plate and inserted into the instrument for analysis. Experiments were performed according to manufacturer’s default settings: Plate pre-rinse syringe clean. A total of 19 injections were performed; each experiment was repeated 3–5 times. Heats of dilution for histone peptides determined in control experiments were subtracted from the titration binding data. […]
# [2] = system: four of the readers; assay: ITC, reader domains taken together; format: binding, human; conditions: four of the five readers
# Source text: as §1
# ITC studies followed a reported procedure. […] Histone peptide titrations were performed with the same reader batches. Solutions of the reader in buffer (25–40 µM) and of the histone H3 peptide (350–600 µM) in buffer were prepared. […] Heats of dilution for histone peptides determined in control experiments were subtracted from the titration binding data. Data were analysed with Origin 6.0 (Microcal Inc., Northampton, Massachusetts, USA) and curve fitting with one-site binding mode was applied.
# [3] = system: KDM4DJmjC (M1–L358); assay: MALDI-TOF demethylation assay, KDM4DJmjC; format: biochemical, human; conditions: KDM4DJmjC 2.4 µM, peptide 5.0 µM, 1 hr, duplicates
# Experimental: A Bruker Daltonics MALDI-TOF/TOF AutoflexSpeed machine and Bruker MTP 384 target plates (polished steel BC, Part: 8280781) were used. The machine was controlled using Flex control (v. 3.4 build 135.10) and Compass for flex series (v. 1.4) software. Measurements were in the positive ion mode with the reflectron mode enabled. Incubations employed ProxiPlate-384™ (Perkin Elmer) plates into which was pipetted a solution of [H3_1-15K9me3 (10.0 µM), (+)-sodium L-ascorbate (1.0 mM), (NH4)2Fe(II)(SO4)2 (100 µM), di-sodium 2-oxoglutarate (200 µM) in buffer (HEPES (50 mM)) in MilliQ (pH 7.5)] (5.0 µL) using ClipTip™ (Thermo Scientific™) pipette tips and E1-ClipTip™ (Thermo Scientific™). The enzyme solution [KDM4EJmjC (1.0 µM) in HEPES (50 mM)] (5.0 µL) was added to initiate reaction at 37 °C. Reactions were quenched with formic acid in water (2%, 5.0 µL).
# [4] = 25 °C, H3 1-10 peptide, Tris (50 mM), pH 7.5, from 3 to 5 experiments, ± SD
molecule,measurement,setting,value
C[C@H](N)C(=O)N[C@@H](CCCNC(=N)N)C(=O)N[C@H](C(=O)N[C@@H](CCCC[P+](C)(C)C)C(=O)N[C@@H](CCC(N)=O)C(=O)N[C@H](C(=O)N[C@@H](C)C(=O)N[C@@H](CCCNC(=N)N)C(=O)N[C@@H](CCCCN)C(=O)N[C@@H](CO)C(N)=O)[C@@H](C)O)[C@@H](C)O [H3KP4me3],-TΔS°,[1]; [4],8.8 ± 0.1 kcal/mol
same,ΔG°,[1]; [4],-8.9 ± 0.1 kcal/mol
same,ΔH°,[1]; [4],-17.7 ± 0.1 kcal/mol
same,"fold stronger binding (ΔKd), H3KP4me3 versus H3K4me3",[1]; KDM4ATTD,~ 12 fold
same,"ΔΔH°, H3KP4me3 relative to H3K4me3",[1]; KDM4ATTD,-4.7 kcal/mol
same,binding relative to H3K4me3,[2],stronger complex formation than with H3K4me3
"ARTKQTAR(KPme3)STGGKA [H3KP9me3, histone H3 residues 1–15 with trimethylphosphonium lysine analogue at position 9]",demethylation,[3],substantial turnover to H3KP9me2
